Data: article PMC10961402, “Safety, tolerability, pharmacokinetics and pharmacokinetic-pharmacodynamic modeling of cetagliptin in patients with type 2 diabetes mellitus” (Frontiers in Endocrinology, 2024)
Like-named read-outs stand apart in the source and are kept apart here.

Legend:
[1] = in vivo
From the text: A population PK/PD (PopPK/PD) model was developed to describe the relationship between cetagliptin and DPP-4 inhibition. A sequential two-step analysis approach to modeling building was implemented. First, a population PK model was developed, and then parameters were fixed to establish the PopPK/PD model. The nonlinear mixed effect modeling method was used to establish the PopPK/PD model. Model selection criteria were based on goodness-of-fit plots, objective function value (OFV, equal to −2 log-likelihood), Akaike information criteria (AIC), and precision of parameter estimates.
A total of 560 plasma concentrations of cetagliptin from 32 patients with T2DM were used for PopPK analysis. The structural model was tested using either one- or two-compartment PK models. […]
The additive error model (Equation 2), proportional error model (Equation 3), and additive and proportional error model (Equation 4) were evaluated to describe the residual variability: […]
Goodness-of-fit plots were assessed to describe the adequacy of the final PopPK/PD model, including observations vs. population predictions, observations vs. individual predictions, conditional weighted residuals (CWRES) vs. population predictions, and CWRES vs. time., A bootstrap resampling procedure was performed to assess the stability of the final PopPK/PD model. […]

[2] = test system: plasma active GLP-1; assay: Plasma active GLP-1 concentration change from baseline (ELISA); assay type: in vivo, human; settings: patients with T2DM; for GLP-1 Baseline (value before dosing): day 1 before dosing; for increase of plasma active GLP-1 AUEC0-24h compared with placebo group: after multiple dosing; for △GLP-1 TRmax,ss / △GLP-1 TRmax: median (range)
Protocol: Blood samples for GLP-1 activity evaluation were collected at the same time points as for PK. 2 mL blood samples were collected for GLP-1 activity detection (20 μL DPP-4i was added to blood-collecting tubes beforehand). The tubes were placed on ice until centrifugation. The blood samples were centrifuged at 2-8°C, 1500 g for 10 minutes within 1 hour after blood collection. After centrifugation, the blood samples were evenly divided into two aliquots and stored at -80 ± 10°C. Plasma active GLP-1 concentrations were determined using a validated ELISA method. Linear calibration curves were obtained in the concentration range of 0.017-276 pM ([31]).
The change of GLP-1 concentration from baseline (△GLP-1) was calculated as follows:
Δ [GLP-1] = [GLP-1] (t) - [GLP-1] (0)
The calculated parameters for GLP-1 activity were as follows: the baseline GLP-1 value before dosing (Baseline), Rmax, TRmax, AUEC0-t, AUEC0-24h, GLP-1 concentration change at 2 h after lunch (△GLP-1-6h), GLP-1 concentration change at 2 h after dinner (△GLP-1-12h), Rmin on day 14, and the average response on day 14 (Ravg).

[3] = set-up: method as in PMID 34655432; settings: healthy subjects; single oral doses of 12.5 to 400 mg; cited from earlier work
[4] = set-up: method as in PMID 34965609; settings: healthy subjects, cited from earlier work

C[C@@H]1c2cnc(C(F)(F)F)n2CCN1C(=O)C[C@H](N)Cc1cc(F)c(F)cc1F.O=P(O)(O)O [Cetagliptin, cetagliptin]
tvCl2 (typical value of intercompartment clearance) [1]: 9.671 L/h
tvV (typical value of volume of central compartment distribution) [1]: 8.668 L
GLP-1 Baseline (value before dosing) ([2]; 50 mg group): 0.491 ± 0.815 pM
accumulation ratios of Rmax and AUEC0-24 h for plasma active GLP-1 ([2]; 50 mg once daily): about 1.5
increase of plasma active GLP-1 AUEC0-24h compared with placebo group ([2]; 50 mg once daily): 2.20 fold
R0h,ss (baseline plasma active GLP-1 on day 14) ([2]; 50 mg oral once daily, day 14): 1.787 ± 1.046 pM
△GLP-1-6h (change at 2 h after lunch) ([2]; 50 mg oral once daily, day 14): 4.145 ± 0.920 pM
△GLP-1-12h (change at 2 h after dinner) ([2]; 50 mg oral once daily, day 14): 3.880 ± 1.641 pM
△GLP-1 AUEC0-24h ([2]; 50 mg oral once daily, day 14): 57.8 ± 22.7 pM·h
△GLP-1 Ravg,ss ([2]; 50 mg oral once daily, day 14): 2.408 ± 0.944 pM
△GLP-1 Rmax,ss ([2]; 50 mg oral once daily, day 14): 5.891 ± 1.692 pM
R0h,ss (baseline plasma active GLP-1 on day 14) ([2]; 50 mg oral once daily, day 14, listed as cetagliptin): 1.787 pM
△GLP-1 TRmax,ss ([2]; 50 mg oral once daily, day 14): 5.00 (5.00-12.00) h
△GLP-1-6h (change at 2 h after lunch) ([2]; 50 mg oral, day 1): 2.457 ± 1.135 pM
△GLP-1-12h (change at 2 h after dinner) ([2]; 50 mg oral, day 1): 2.887 ± 0.981 pM
△GLP-1 AUEC0-24h ([2]; 50 mg oral, day 1): 42.6 ± 10.0 pM·h
△GLP-1 Rmax ([2]; 50 mg oral, day 1): 3.866 ± 1.031 pM
△GLP-1 TRmax ([2]; 50 mg oral, day 1): 5.00 (5.00-12.00) h
GLP-1 Baseline (value before dosing) ([2]; 100 mg group): 0.434 ± 0.393 pM
accumulation ratios of Rmax and AUEC0-24 h for plasma active GLP-1 ([2]; 100 mg once daily): about 1.5
increase of plasma active GLP-1 AUEC0-24h compared with placebo group ([2]; 100 mg once daily): 3.36 fold
R0h,ss (baseline plasma active GLP-1 on day 14) ([2]; 100 mg oral once daily, day 14): 1.858 ± 1.186 pM
△GLP-1-6h (change at 2 h after lunch) ([2]; 100 mg oral once daily, day 14): 7.006 ± 3.171 pM
△GLP-1-12h (change at 2 h after dinner) ([2]; 100 mg oral once daily, day 14): 5.648 ± 1.810 pM
△GLP-1 AUEC0-24h ([2]; 100 mg oral once daily, day 14): 88.2 ± 29.6 pM·h
△GLP-1 Ravg,ss ([2]; 100 mg oral once daily, day 14): 3.673 ± 1.234 pM
△GLP-1 Rmax,ss ([2]; 100 mg oral once daily, day 14): 7.868 ± 2.565 pM
R0h,ss (baseline plasma active GLP-1 on day 14) ([2]; 100 mg oral once daily, day 14, listed as cetagliptin): 1.858 pM
△GLP-1 TRmax,ss ([2]; 100 mg oral once daily, day 14): 6.00 (5.00-12.00) h
△GLP-1-6h (change at 2 h after lunch) ([2]; 100 mg oral, day 1): 4.269 ± 2.232 pM
△GLP-1-12h (change at 2 h after dinner) ([2]; 100 mg oral, day 1): 3.600 ± 2.410 pM
△GLP-1 AUEC0-24h ([2]; 100 mg oral, day 1): 63.1 ± 34.3 pM·h
△GLP-1 Rmax ([2]; 100 mg oral, day 1): 6.026 ± 3.823 pM
△GLP-1 TRmax ([2]; 100 mg oral, day 1): 5.00 (5.00-12.00) h
dose-limiting toxicity [3]: no dose-limiting toxicity observed
AUC0-τ (steady state) ([4]; 50 mg): 1440 ng·h/mL
Cmax (steady state) ([4]; 50 mg): 125 ng/mL
RAUC ([4]; 50 mg): 1.72
Tmax (steady state) ([4]; 50 mg): 1.5 h
t1/2 (steady state) ([4]; 50 mg): 38.8 h
AUC0-τ (steady state) ([4]; 100 mg): 3120 ng·h/mL
Cmax (steady state) ([4]; 100 mg): 294 ng/mL
RAUC ([4]; 100 mg): 1.38
Tmax (steady state) ([4]; 100 mg): 1.0 h
t1/2 (steady state) ([4]; 100 mg): 36.6 h
